# Experimental data as given in US5726153A, “Synthetic peptides for arterial imaging” (New England Deaconess Hospital Corporation, priority 1995, dated 1998).
# “Also recorded” adds a separate entry of the source. Ends that are not written are not given here.
# Columns and labels:
# anti-SP-4 antiserum = assay: ELISA cross-reactivity: peptide-coated plates treated with anti-SP-4 antiserum; format: binding, rabbit; details: FIG. 4
# Method: To produce anti-synthetic peptide antisera, purified synthetic peptide was dissolved in PBS, pH 7.4 at a concentration of 1 mg/ml. The peptide solution was mixed with an equal volume of complete Freund's adjuvant and vortexed thoroughly until a thick emulsion was produced. New Zealand White rabbits (Millbrook Farms, Amherst, Mass.) were injected with a total of 0.5 mg synthetic peptide administered subcutaneously in the four dorsal quadrants. The rabbits were given a boost (injected at the same sites) with 0.5 mg peptide emulsified in incomplete Freund's adjuvant 2-3 weeks later. Eight to ten days after the first boost, the animals were given a second, identical boost and were bled of 30 ml 8 to 10 days later.
# To test for immunological cross-reactivity microtiter plates (Immulon II Dynatech Labs, Chantilly, Va.) were coated with the purified synthetic peptide or LDL by an overnight incubation at 4° C. with 100 ng peptide per well in 50 mM carbonate, pH 9.6, and blocked for nonspecific binding with an additional overnight incubation with phosphate-buffered saline, pH 7.4 (PBS), 1% bovine serum albumin (BSA). Control wells were coated with BSA alone. After washing twice with PBS, the wells were filled with serial dilutions (1:10 to 1:100,000 made in PBS, 3% BSA) of a rabbit polyclonal antibody generated against the synthetic peptide(s) and incubated for 45 minutes at room temperature. Following thorough washing (3× with PBS, 0.1% BSA), the wells were filled with a 1:2000 dilution of goat anti-rabbit IgG-horseradish peroxidate conjugate (Atlantic Antibodies, Scarborough, Me.). After a final wash, the wells were filled with 3,3'-5,5'- tetramethybenzidine (TMB) microwell peroxidase substrate (Kirkegaard and Perry Labs, Gaithersburg, Md.) and read at 650 nm every two minutes on an ELISA-5 automated plate reader (Physica, New York, N.Y.). Results (see, e.g., FIGS. 4 and 5) are expressed as the initial velocity of substrate conversion (change in OD650 /hr), which is determined by a linear regression of 15 data points per well. Each data point represents the average of three measured data points from the same plate, run at the same time.
# [1] = Plasma decay of 125I-labelled synthetic peptide after intravenous injection; format: in vivo, rabbit; details: for plasma level leveled off to / plasma level after one hour: 125I-labelled peptide, intravenous, rabbit; for additional fall of plasma level over the next three hours: from one to four hours after injection
# Method: (§1) Each labelled synthetic peptide preparation (containing, for example, 150 to 400 or more μCi of ^125 I-labelled peptide) in column elution buffer was injected into the marginal ear vein of the ballooned and healing New Zealand white rabbits or WHHL rabbits. Serial blood samples were obtained from the opposite ear during the ensuing 0-24 hours and were analyzed for radioactivity. The labelled peptide concentrations in the blood samples that were withdrawn over the first 10 minutes after injection were extrapolated to zero time to determine the time zero radioactivity in the calculation of average plasma radioactivity. […] Peptides SP15a, SP17, SP19a, SP21a, SP28, SP34a, and SP30 were cleared rapidly from the plasma with half-lives of about one minute or less; after one hour, the plasma levels were less than 10% of the injected dose and fell by an additional 1% over the next three hours. Peptides SP15a, SP17, SP21a, SP28, SP34a, and SP30 leveled off to a plasma level of 3-6%; peptide SP19a cleared more quickly and leveled off to a concentration of 0.3% (at four hours).
# [2] = test system: balloon de-endothelialized healing abdominal aorta; assay: Focal accumulation at vascular injury, onlay autoradiography of excised aorta, balloon de-endothelialized rabbit; format: in vivo, New Zealand white rabbits
# Method: The peptides described herein were assayed for their ability to target sites of vascular injury as follows. Male New Zealand white rabbits (2 to 3 kg each) were obtained from ARI Breeding Labs, West Bridgewater, Mass. To induce vascular injury, their abdominal aortas were denuded of endothelium by a modification of the Baumgartner technique (Fischman et al., Arteriosclerosis 7:361, 1987). Briefly, after each animal was anesthetized with ketamine and ether or, alternatively, with xylazine (20 mg/ml) and Ketalar (50 mg/ml), the left femoral artery was isolated; a 4F Fogarty embolectomy catheter (Model 12-040-4F, Edwards Laboratories Incorporated, Santa Anna, Calif.) was introduced through an arterotomy in the femoral artery and was advanced under fluoroscopic visualization to the level of the diaphragm. The catheter was inflated to a pressure of about 3 psi above the balloon inflation pressure with radiographic contrast medium (Conray, Mallinkrodt, St. Louis, Mo.). Three passes were made through the abdominal aorta with the inflated catheter to remove the aortic endothelium before removal of the catheter, ligation of the femoral artery, and closure of the wound. The animals were allowed to heal for a period of 4 to 5 weeks before injection of the labelled synthetic peptides.
# as §1
# One to twenty-four hours after injection of the labelled synthetic peptide preparations, each animal was injected intravenously with 4 ml of a 0.5% solution of Evans blue dye (Allied Chemical Company, National Aniline Division, NY, N.Y.) which stains areas of de-endothelialized aorta blue. After 30 minutes, the animal was sacrificed by a lethal injection of pentobarbital. After sacrifice, the aorta was removed completely, washed in saline, and fixed in 10% trichloroacetic acid.
# The washed and fixed aortas from the animals that had been injected with radiolabelled synthetic peptide were opened along the ventral surface. These segments were then pinned out, fixed for 2 hours in 10% trichloroacetic acid, and photographed. The fixed, opened vessels were then covered with a single layer of plastic (Saran) wrap, placed on high speed x-ray film (Kodak Orthofilm OH-1), and stored for 3 days to 4 weeks in a Kodak "X-Omatic cassette" (24×30 cm) at -70° C. before development in a 90 second X-OMAT.
# [3] = test system: atherosclerotic lesions of the aorta; assay: Focal accumulation at atherosclerotic lesions, onlay autoradiography of excised aorta, WHHL rabbit; format: in vivo, Watanabe Heritable Hyperlipemic (WHHL) rabbits; details: FIG. 7
# Method: Watanabe Heritable Hyperlipemic (WHHL) rabbits were also used as animal models. They were obtained from the WHHL Rabbit Program of the National Heart Lung and Blood Institute (Bethesda, Md.) at about 3 months of age and weighing about 1.5 kg. The animals were raised until they were 3-4 kg in weight.
# as §1, with “hours). […]” for “hours).”
Substance,binding of anti-SP-4 antiserum to the peptide (anti-SP-4 antiserum),plasma level leveled off to [1],plasma level after one hour [1],additional fall of plasma level over the next three hours [1] [%],localization of 125I-labelled peptide on onlay autoradiograph of the aorta [2],plasma concentration leveled off to ([1]; at four hours) [%],localization of 125I-labelled peptide on onlay autoradiograph of the aorta [3]
"CH3 CONH-Tyr-Lys-Leu-Ala-Leu-Glu-Ala-Ala-Arg-Leu-Leu-Ala-Asn-Ala-Glu-Gly-Ala-Lys-CONH2 (Ac-YKLALEAARLLANAEGAK-NH2) [SP-8A, modified counterpart of SP-8]",bind,–,–,–,–,–,–
"CH3 CONH-Tyr-Arg-Ala-Leu-Val-Asp-Tyr-Leu-Lys-Phe-Val-Thr-Gln-Leu-CONH2 (Ac-YRALVDYLKFVTQL-NH2) [SP-12A, modified counterpart of SP-12]",bind,–,–,–,–,–,–
"Ac-YRALVDTEFKVKQEAGAK-NH2 [SP-21a, CH3 CONH-Tyr-Arg-Ala-Leu-Val-Asp-Thr-Glu-Phe-Lys-Val-Lys-Gln-Glu-Ala-Gly-Ala-Lys-CONH2]",–,3-6%,less than 10 % of the injected dose,1,accumulated focally at the leading edges of regenerating endothelial tissue,–,–
"YAALDLNAVANKIADFEL-NH2 [SP-17, H2 N-Tyr-Ala-Ala-Leu-Asp-Leu-Asn-Ala-Val-Ala-Asn-Lys-Ile-Ala-Asp-Phe-Glu-Leu- CONH2]",–,3-6%,less than 10 % of the injected dose,1,accumulated focally at the leading edges of regenerating endothelial tissue,–,–
"Ac-YRALVDTLKFVTEQAKGA-NH2 [SP-19a, CH3 CONH-Tyr-Arg-Ala-Leu-Val-Asp-Thr-Leu-Lys-Phe-Val-Thr-Glu-Gln-Ala-Lys-Gly-Ala-CONH2]",–,–,less than 10 % of the injected dose,1,accumulated focally at the leading edges of regenerating endothelial tissue,0.3,–
"Ac-YAKFRETLEDTRDRMY-NH2 [SP-15a, CH3 CONH-Tyr-Ala-Lys-Phe-Arg-Glu-Thr-Leu-Glu-Asp-Thr-Arg-Asp-Arg-Met-Tyr-CONH2]",–,3-6%,less than 10 % of the injected dose,1,accumulated focally at the leading edges of regenerating endothelial tissue,–,–
"YVGVAPGVGVAPGVGVAPG [SP-28, H2 N-Tyr-Val-Gly-Val-Ala-Pro-Gly-Val-Gly-Val-Ala-Pro-Gly-Val-Gly-Val-Ala-Pro- Gly-OH]",–,3-6%,less than 10 % of the injected dose,1,accumulated focally at the leading edges of regenerating endothelial tissue,–,–
"H2 N-Tyr-Lys-Leu-Ala-Leu-Glu-Ala-Ala-Arg-Leu-Leu-Ala-Asp-Ala-Glu-Gly-Ala-Lys- CONH2 (H-YKLALEAARLLADAEGAK-NH2) [SP-6, conservatively substituted SP-4]",bind,–,–,–,–,–,–
"H2 N-Tyr-Lys-Leu-Ala-Leu-Glu-Ala-Ala-Arg-Leu-Leu-Ala-Asn-Ala-Glu-Gly-Ala-Lys- CONH2 (H-YKLALEAARLLANAEGAK-NH2) [SP-8, conservatively substituted SP-4]",bind,–,–,–,–,–,–
"CH3 CONH-Tyr-Arg-Ala-Leu-Val-Asp-Thr-Leu-Lys-Phe-Val-Thr-Gln-Ala-Glu-Gly-Ala-Lys-CONH2 (Ac-YRALVDTLKFVTQAEGAK-NH2) [SP-4A, modified counterpart of SP-4]",bind,–,–,–,–,–,–
"YVPGVGVPGVGVPGVGVPGVG-NH2 [SP-30, H2 N-Tyr-Val-Pro-Gly-Val-Gly-Val-Pro-Gly-Val-Gly-Val-Pro-Gly-Val-Gly-Val-pro- Gly-Val-Gly-CONH2]",–,3-6%,less than 10 % of the injected dose,1,accumulated focally at the leading edges of regenerating endothelial tissue,–,–
"CH3 CONH-Tyr-Lys-Leu-Ala-Leu-Glu-Ala-Ala-Arg-Leu-Leu-Ala-Asp-Ala-Glu-Gly-Ala-Lys-CONH2 (Ac-YKLALEAARLLADAEGAK-NH2) [SP-6A, modified counterpart of SP-6]",bind,–,–,–,–,–,–
"CH3 CONH-Tyr-Arg-Ala-Leu-Val-Asp-Thr-Leu-Lys-CONH2 (Ac-YRALVDTLK-NH2) [SP-14A, modified counterpart of SP-14]",bind,–,–,–,–,–,–
Ac-YVLDEFREKLNEELEALKQK-NH2 [SP-34a],–,3-6%,less than 10 % of the injected dose,1,accumulated focally at the leading edges of regenerating endothelial tissue,–,–
NH2 -Tyr-Arg-Ala-Leu-Val-Asp-Thr-Leu-Lys-Phe-Val-Thr-Gln-Ala-Glu-Gly-Ala-Lys-CONH2 (H-YRALVDTLKFVTQAEGAK-NH2) [SP-4],bind,–,–,–,clear-cut localization of the synthetic peptide on the image at the healing (re-endothelizing) edge of the aortic lesions; also recorded: labelled healing lesions,–,clearly correspond to the radioactively-labelled lesions; also recorded: localizes at atherosclerotic lesions
